Results taken from PMC9043997, “LEAP2 reduces postprandial glucose excursions and ad libitum food intake in healthy men” (Cell Reports Medicine, 2022).
Where a SMILES comes first, the peptide text is derived from it. Bridges are numbered along the chain shown (N, C = ends).

Columns and labels:
[1] = tested on: healthy men; assay: Plasma glucagon during LEAP2 infusion, crossover study; format: in vivo, human; details: mean ± SEM
Text: (§1) The infusion was terminated when participants had finished eating.
(§2) For analysis of plasma glucose, blood was distributed in fluoride heparin-coated tubes, centrifuged immediately for 30 s (12,100 g, room temperature) and measured bedside by the glucose oxidase method (YSI 2900 Biochemistry Analyzer; YSI Incorporated, Yellow Springs, Ohio, USA). For analysis of LEAP2, blood was collected in chilled K3EDTA tubes each containing 250 KIU of aprotinin. For analysis of acyl ghrelin, blood was collected in chilled K2EDTA tubes added 20 μL pefabloc (100 mg/mL; Merck Millipore, Burlington, Massachusetts, USA). Subsequently, pefabloc-treated plasma was acidified with HCl (12.5 μL 2M HCl per 500 μL plasma; Merck Millipore, Burlington, Massachusetts, USA). For analysis of glucagon, blood was collected in K2EDTA tubes. For analysis of GH, insulin, C-peptide, free fatty acids, glycerol, triglycerides and acetaminophen (paracetamol), blood was collected in tubes with lithium and heparin. All tubes were immediately cooled on ice, centrifuged for 15 min (2,000 g, 4°C) and stored at −80°C until analysis. LEAP2 concentrations were determined by an in-house radioimmunoassay directed against the N-terminal part of LEAP2. LEAP-2 was used for standards, and the tracer was a peptide composed of the 12 N-terminal amino acids of LEAP2, with a ^125I-labelled tyrosine added to the C-terminal end. The precision and accuracy of the assay were evaluated based on European Medicines Agency's guidelines for bioanalytical assay validation. […] Due to supply chain disruptions from the COVID-19 pandemic, acyl ghrelin was only measured in plasma samples at timepoints 0, 60, 105, 165 and 255 min. […] Plasma GH was measured by Immunodiagnostic system-iSYS assay (IS-3700; IDS Limited, Boldon, UK). The assay is based on chemiluminesence technology and was performed according to the manufacturer’|'s instructions. […] For analysis of glucagon, plasma was extracted in a final concentration of 70% ethanol. Glucagon was measured using a C-terminal directed antiserum (code number 4305) measuring glucagon of pancreatic origin as previously described.[40] […] Plasma insulin and C-peptide were measured using a two-sided electrochemiluminescence immunoassay (Atellica IM Analyzer; Siemens Healthcare, Ballerup, Denmark). Plasma triglycerides and acetaminophen were analyzed by spectrophotometric methods following enzymatic hydrolysis and oxidation (Siemens Atellica CH 930; Siemens Healthcare, Ballerup, Denmark). Plasma concentrations of free fatty acids and glycerol were determined by enzymatic methods modified to run on a COBAS 6000 automatic analyzer (Roche, Rødovre, Denmark) using a NEFA-HR assay (Wako Chemicals, Neuss, Germany) and glycerol assay (Randox Laboratories, Crumlin, UK), respectively.
(§3) Unless otherwise stated, results are presented as mean ± SEM. Baseline values were calculated as a mean of timepoints −35, −10 and 0 min or, when only available −10 and 0 min. Baseline values for the postprandial period were calculated as a mean of timepoint 60 min. Calculations of AUC were based on the trapezoidal rule. AUC values are reported for the period 0 to 255 min. To assess the fasting and postprandial periods separately, AUC values are reported for the periods 0 to 60 min and 60 to 255 min, respectively. Student’s paired t test was used to test for differences in baseline, peak, time to peak, AUC and mean values and ad libitum food intake in men.

[2] = tested on: wild-type mice; assay: Plasma glucose and food intake after subcutaneous LEAP2 in wild-type mice; format: in vivo, mouse
Description: Food intake and blood glucose measurements were measured in female GHSR-null mice (n = 8) and wild-type littermates (n = 10) (14–24 weeks of age). Mice were double-housed with matching genotype and age. All mice were fasted for four hours and randomized by mean body weight per cage and allocated into either vehicle (saline) or LEAP2 administration on the first day of the study. LEAP2 or vehicle was administered subcutaneously just before start of dark phase (6 PM). By start of dark phase, mice had ad libitum access to water and a normal chow diet. Cumulative food intake was measured one, two and four hours after administration and calculated as the average food intake per cage per g body weight of each mouse, respectively. Blood glucose was measured in blood from a tail puncture at baseline and one, two and four hours after administration by use of a glucometer (Contour ™xt meter; Ascensia Diabetes Care, Basel, Switzerland). One week later, mice underwent the same procedure, but with the opposite treatment. The concentration of the LEAP2 dose was 3 μmol/kg.

[3] = tested on: healthy men; assay: Visual analog scale ratings of appetite-related sensations, crossover study; format: in vivo, human; details: healthy men n = 20, iv LEAP2 ~25 pmol/kg/min, 100 mm VAS, paired t test of AUC
Description: Sensations of hunger, satiety, prospective food consumption, fullness, nausea, comfort and thirst were rated on 100 mm VAS at timepoints −35, 0, 30, 75, 105, 135, 165, 195, 225 and 255 min and after the ad libitum meal.[34] After eating, participants evaluated the ad libitum meal by VAS with a score (median (interquartile range)) for appearance of 55 (36–72) mm, taste 65 (42–76) mm, off-notes 17 (7–31) mm, smell 63 (50–72) mm and overall impression 59 (45–73) mm indicating a moderate evaluation of the meal.

[4] = tested on: healthy men; assay: Plasma free fatty acids, glycerol and triglycerides during LEAP2 infusion, crossover study; format: in vivo, human; details: mean ± SEM
Text: as §1, §2, §3

[5] = tested on: healthy men; assay: Plasma acetaminophen as indirect marker of gastric emptying, crossover study; format: in vivo, human; details: healthy men n = 20, iv LEAP2 ~25 pmol/kg/min
Text: as §1
For analysis of plasma glucose, blood was distributed in fluoride heparin-coated tubes, centrifuged immediately for 30 s (12,100 g, room temperature) and measured bedside by the glucose oxidase method (YSI 2900 Biochemistry Analyzer; YSI Incorporated, Yellow Springs, Ohio, USA). For analysis of LEAP2, blood was collected in chilled K3EDTA tubes each containing 250 KIU of aprotinin. For analysis of acyl ghrelin, blood was collected in chilled K2EDTA tubes added 20 μL pefabloc (100 mg/mL; Merck Millipore, Burlington, Massachusetts, USA). Subsequently, pefabloc-treated plasma was acidified with HCl (12.5 μL 2M HCl per 500 μL plasma; Merck Millipore, Burlington, Massachusetts, USA). For analysis of glucagon, blood was collected in K2EDTA tubes. For analysis of GH, insulin, C-peptide, free fatty acids, glycerol, triglycerides and acetaminophen (paracetamol), blood was collected in tubes with lithium and heparin. All tubes were immediately cooled on ice, centrifuged for 15 min (2,000 g, 4°C) and stored at −80°C until analysis. LEAP2 concentrations were determined by an in-house radioimmunoassay directed against the N-terminal part of LEAP2. […] The precision and accuracy of the assay were evaluated based on European Medicines Agency's guidelines for bioanalytical assay validation. […] Due to supply chain disruptions from the COVID-19 pandemic, acyl ghrelin was only measured in plasma samples at timepoints 0, 60, 105, 165 and 255 min. […] Plasma GH was measured by Immunodiagnostic system-iSYS assay (IS-3700; IDS Limited, Boldon, UK). […] Glucagon was measured using a C-terminal directed antiserum (code number 4305) measuring glucagon of pancreatic origin as previously described.[40] […] Plasma insulin and C-peptide were measured using a two-sided electrochemiluminescence immunoassay (Atellica IM Analyzer; Siemens Healthcare, Ballerup, Denmark). Plasma triglycerides and acetaminophen were analyzed by spectrophotometric methods following enzymatic hydrolysis and oxidation (Siemens Atellica CH 930; Siemens Healthcare, Ballerup, Denmark). […]

[6] = healthy men n = 20, LEAP2 day, before infusion
[7] = healthy men n = 20, iv LEAP2 ~25 pmol/kg/min, 0 to 255 min
[8] = healthy men n = 20, iv LEAP2 ~25 pmol/kg/min, fasting period
[9] = healthy men n = 20, iv LEAP2 ~25 pmol/kg/min, liquid mixed meal at 65 min
[10] = healthy men n = 20, iv LEAP2 ~25 pmol/kg/min, postprandial period
[11] = healthy men n = 20, iv LEAP2 ~25 pmol/kg/min, time = 60 min
[12] = 1.5 g acetaminophen in liquid mixed meal at 65 min, marker of gastric emptying, mean ± SEM

Compound: CC[C@H](C)[C@@H]1NC(=O)[C@@H]2CSSC[C@@H](C(=O)N[C@@H](CO)C(=O)N[C@@H](CC(C)C)C(=O)N[C@@H](CO)C(=O)N[C@H](C(=O)N[C@@H](C)C(=O)N[C@@H](CCC(N)=O)C(=O)N[C@@H](CCC(=O)O)C(=O)O)C(C)C)NC(=O)[C@H](CCCNC(=N)N)NC(=O)[C@H](CCCNC(=N)N)NC(=O)[C@H](CCCCN)NC(=O)[C@H](CCCNC(=N)N)NC(=O)[C@H](CSSC[C@H](NC(=O)[C@H](CO)NC(=O)[C@H](C)NC(=O)CNC(=O)[C@@H](NC(=O)[C@@H]3CCCN3C(=O)[C@H](CCCNC(=N)N)NC(=O)[C@H](CC(C)C)NC(=O)[C@H](CO)NC(=O)[C@@H](NC(=O)CNC(=O)[C@H](CCCNC(=N)N)NC(=O)[C@H](Cc3c[nH]c4ccccc34)NC(=O)[C@H](Cc3ccccc3)NC(=O)[C@@H]3CCCN3C(=O)[C@@H](NC(=O)[C@@H](N)CCSC)[C@@H](C)O)C(C)C)[C@@H](C)CC)C(=O)N[C@@H](CCCNC(=N)N)C(=O)N[C@@H](CC(=O)O)C(=O)N[C@@H](CC(=O)O)C(=O)N[C@@H](CO)C(=O)N[C@@H](CCC(=O)O)C(=O)N2)NC(=O)[C@H](CC(C)C)NC(=O)[C@H](CCCNC(=N)N)NC(=O)[C@H]([C@@H](C)O)NC1=O [LEAP2, liver-expressed antimicrobial peptide 2] (H-MTPFWRGVSLRPIGASCRDDSECITRLCRKRRCSLSVAQE-OH; disulfide 17-28, 23-33 (inferred); N-terminus and C-terminus assumed)
- Glucagon Baseline [1, 6]: 6.57 ± 0.76 pmol/L
- Glucagon AUC [1, 7]: 2.26 ± 0.20 nmol·min/L
- Glucagon AUC0–60 min [1, 8]: 0.446 ± 0.044 nmol·min/L
- Glucagon Peak [1, 9]: 13.0 ± 0.94 pmol/L
- Glucagon Time to peak [1, 9]: 116 ± 12.5 min
- Glucagon AUC60–255 min [1, 10]: 1.82 ± 0.17 nmol·min/L
- Glucagon Postprandial baseline [1, 11]: 7.35 ± 0.82 pmol/L
- plasma glucose during ad libitum food intake 1 h after dosing vs vehicle ([2]; female wild-type mice n = 10, LEAP2 3 μmol/kg single subcutaneous dose, after 4 h fast): significantly diminished increases in plasma glucose
- glucose-lowering effect at later time points (2 and 4 h) ([2]; female wild-type mice n = 10, LEAP2 3 μmol/kg subcutaneous): not at the later time points
- cumulative food intake 2 and 4 h after dosing vs vehicle ([2]; female wild-type mice n = 10, LEAP2 3 μmol/kg subcutaneous, chow ad libitum from start of dark phase): lowered the cumulative food intake
- VAS ratings of hunger, satiety, prospective food consumption, fullness, nausea, comfort, or thirst, LEAP2 vs placebo [3]: no differences
- Free fatty acids Baseline [4, 6]: 339 ± 18.4 µmol/L
- Glycerol Baseline [4, 6]: 26.6 ± 2.45 µmol/L
- Triglycerides Baseline [4, 6]: 920 ± 62.2 µmol/L
- Free fatty acids AUC [4, 7]: 43.2 ± 2.49 mmol·min/L
- Glycerol AUC [4, 7]: 4.87 ± 0.57 mmol·min/L
- Triglycerides AUC [4, 7]: 263 ± 16.7 mmol·min/L
- Free fatty acids AUC0–60 min [4, 8]: 18.9 ± 1.18 mmol·min/L
- Glycerol AUC0–60 min [4, 8]: 1.65 ± 0.15 mmol·min/L
- Triglycerides AUC0–60 min [4, 8]: 53.5 ± 3.14 mmol·min/L
- Free fatty acids Nadir [4, 9]: 58.4 ± 3.94 µmol/L
- Free fatty acids Time to nadir [4, 9]: 155 ± 7.63 min
- Glycerol Nadir [4, 9]: 11.7 ± 2.12 µmol/L
- Glycerol Time to nadir [4, 9]: 144 ± 10.2 min
- Triglycerides Peak [4, 9]: 1,275 ± 84.8 μmol/L
- Triglycerides Time to peak [4, 9]: 195 ± 5.33 min
- Free fatty acids AUC60–255 min [4, 10]: 24.4 ± 1.51 mmol·min/L
- Glycerol AUC60–255 min [4, 10]: 3.22 ± 0.44 mmol·min/L
- Triglycerides AUC60–255 min [4, 10]: 210 ± 13.8 mmol·min/L
- Free fatty acids Postprandial baseline [4, 11]: 272 ± 16.4 µmol/L
- Glycerol Postprandial baseline [4, 11]: 22.9 ± 2.12 µmol/L
- Triglycerides Postprandial baseline [4, 11]: 847 ± 48.3 µmol/L
- Acetaminophen Peak [5, 12]: 65.1 ± 2.52 µmol/L
- Acetaminophen Time to peak [5, 12]: 209 ± 6.34 min
- gastric emptying rate of a liquid mixed meal ([5]; by plasma acetaminophen, vs placebo): does not alter gastric emptying rate
